Measurements: PMC7309225, “Synthesis, Biodistribution, and Radiation Dosimetry of a Novel mGluR5 Radioligand: ^18F-AZD9272” (ACS Chemical Neuroscience, 2020)

What was measured:
[1] = Stability of formulated radioligand in PBS (analytical radio-HPLC); format: physicochemical
Experimental: The radiochemical purity, identity, and stability of ^18F-AZD9272 was determined by using an analytical HPLC system which included a ACE RP column (C18, 3.9 Ø × 250 mm, 5 μm particle size), Merck-Hitatchi L-7100 Pump, L-7400 UV detector, and GM tube for radioactivity detection (VWR International). The mobile phase CH3CN/0.1% TFA with a gradient HPLC method (10–90% in 8 min) and flow rate of 3 mL/min was used to elute the product. The effluent was monitored with a UV absorbance detector (λ = 270 nm) coupled to a radioactive detector (b-flow, Beckman, Fullerton, CA). The retention time (Rt) of ^18F-AZD9272 was 4–5 min. The identity of ^18F-AZD9272 was confirmed by using HPLC with the coinjection of the authentic nonradioactive AZD9272 (3-fluoro-5-(3-(5-fluoropyridin-2-yl)-1,2,4-oxadiazol-5-yl)benzonitrile) standard.

mGluR5 = assay: Brain PET in cynomolgus monkey (HRRT), VT by 2TC model and Logan GA; format: in vivo
Experimental: Two male cynomolgus monkeys (NHP1: 5460 g and NHP2: 7080 g) were used in this study. […] Anesthesia was induced by intramuscular injection of ketamine hydrochloride (approximately 10 mg/kg) at AFL and maintained by intravenous infusion of ketamine (4 mg/kg/h) and xylazine (0.4 mg/kg/h) with a pump. The NHP head was immobilized with a fixation device. […] Heart rate, blood pressure, respiratory rate, and oxygen saturation were continuously monitored throughout the experiments. Fluid balance was maintained by continuous infusion of saline.
PET measurements were conducted using a High Resolution Research Tomograph (HRRT) PET scanner (Siemens Molecular Imaging, Knoxville, TN). […] List-mode data were reconstructed with a series of 34 frames (20 s × 9, 1 min × 3, 3 min × 5, and 6 min × 17), using the ordinary Poisson-3D-ordered subset expectation maximization (OP-3D-OSEM) algorithm with 10 iterations and 16 subsets including modeling of the point spread function (PSF).
An automated blood sampling system (ABSS) was used to measure the continuous radioactivity for the first 3 min after the radioligand injection. Then, blood sampling was performed manually for the measurement of metabolism and radioactivity at 5, 15, 30, 60, 90, and 120 min after the injection. A reversed-phase radio-HPLC method was used to determine the amount of unchanged ^18F-AZD9272 and its radioactive metabolites in NHP plasma.[35]
The regions of interest (ROIs) were delineated manually on the MRI images of each NHP for the anterior cingulate cortex, amygdala, caudate, cerebellum, hippocampus, insular cortex, occipital cortex, prefrontal cortex, putamen, temporal cortex, thalamus, ventral midbrain, and ventral striatum. The MRI of the individual NHP was co-registered to summed PET images of the whole measurement. By applying the co-registration parameters to ROIs, the time–activity curves of brain regions were generated from dynamic PET data.
As the main outcome measure, the total distribution volume (VT) defined as (K1/k2)(k3/k4 + 1) by the two tissue compartment (2TC) model and Logan graphical analysis (GA) was calculated with the metabolite corrected plasma radioactivity as the input function. […] The procedure has been described in detail in a previous publication on [^11C]AZD9272 binding.[33]

## N#Cc1cc(F)cc(-c2nc(-c3ccc([18F])cn3)no2)c1 [^18F-AZD9272, 3-fluoro-5-(3-(5-[^18F]fluoropyridin-2-yl)-1,2,4-oxadiazol-5-yl)benzonitrile]
[1]; 2 h after formulation in sterile phosphate buffered solution (pH = 7.4)
  Radiochemical purity after storage (stability): > 99%
[1]; pH = 7.4, duration of 120 min
  Stability in PBS buffered solution: stable
mGluR5; ACC anterior cingulate cortex, 2TC, NHP1
  VT: 11.5 mL/cm^3
mGluR5; ACC anterior cingulate cortex, 2TC, NHP2
  VT: 11.2 mL/cm^3
mGluR5; ACC anterior cingulate cortex, 2TC, mean
  VT: 11.4 mL/cm^3
mGluR5; ACC anterior cingulate cortex, GA, NHP1
  VT: 10.2 mL/cm^3
mGluR5; ACC anterior cingulate cortex, GA, NHP2
  VT: 10.7 mL/cm^3
mGluR5; ACC anterior cingulate cortex, GA, mean
  VT: 10.4 mL/cm^3
mGluR5; AMG amygdala, 2TC, NHP1
  VT: 15.0 mL/cm^3
mGluR5; AMG amygdala, 2TC, NHP2
  VT: 14.4 mL/cm^3
mGluR5; AMG amygdala, 2TC, mean
  VT: 14.7 mL/cm^3
mGluR5; AMG amygdala, GA, NHP1
  VT: 12.8 mL/cm^3
mGluR5; AMG amygdala, GA, NHP2
  VT: 13.1 mL/cm^3
mGluR5; AMG amygdala, GA, mean
  VT: 13.0 mL/cm^3
mGluR5; CAU caudate, 2TC, NHP1
  VT: 13.3 mL/cm^3
mGluR5; CAU caudate, 2TC, NHP2
  VT: 13.7 mL/cm^3
mGluR5; CAU caudate, 2TC, mean
  VT: 13.5 mL/cm^3
mGluR5; CAU caudate, GA, NHP1
  VT: 12.1 mL/cm^3
mGluR5; CAU caudate, GA, NHP2
  VT: 13.0 mL/cm^3
mGluR5; CAU caudate, GA, mean
  VT: 12.6 mL/cm^3
mGluR5; CER cerebellum, 2TC, NHP1
  VT: 7.1 mL/cm^3
mGluR5; CER cerebellum, 2TC, NHP2
  VT: 7.9 mL/cm^3
mGluR5; CER cerebellum, 2TC, mean
  VT: 7.5 mL/cm^3
mGluR5; CER cerebellum, GA, NHP1
  VT: 6.6 mL/cm^3
mGluR5; CER cerebellum, GA, NHP2
  VT: 7.6 mL/cm^3
mGluR5; CER cerebellum, GA, mean
  VT: 7.1 mL/cm^3
mGluR5; HIP hippocampus, 2TC, NHP1
  VT: 10.7 mL/cm^3
mGluR5; HIP hippocampus, 2TC, NHP2
  VT: 11.9 mL/cm^3
mGluR5; HIP hippocampus, 2TC, mean
  VT: 11.3 mL/cm^3
mGluR5; HIP hippocampus, GA, NHP1
  VT: 9.7 mL/cm^3
mGluR5; HIP hippocampus, GA, NHP2
  VT: 11.2 mL/cm^3
mGluR5; HIP hippocampus, GA, mean
  VT: 10.5 mL/cm^3
mGluR5; INS insular cortex, 2TC, NHP1
  VT: 9.0 mL/cm^3
mGluR5; INS insular cortex, 2TC, NHP2
  VT: 10.0 mL/cm^3
mGluR5; INS insular cortex, 2TC, mean
  VT: 9.5 mL/cm^3
mGluR5; INS insular cortex, GA, NHP1
  VT: 8.5 mL/cm^3
mGluR5; INS insular cortex, GA, NHP2
  VT: 9.6 mL/cm^3
mGluR5; INS insular cortex, GA, mean
  VT: 9.1 mL/cm^3
mGluR5; NHP brain
  Regional brain uptake (PET): highest in the striatum, lower in the thalamus and frontal cortex, and lowest in the cerebellum and occipital cortex
mGluR5; OC occipital cortex, 2TC, NHP1
  VT: 5.4 mL/cm^3
mGluR5; OC occipital cortex, 2TC, NHP2
  VT: 6.0 mL/cm^3
mGluR5; OC occipital cortex, 2TC, mean
  VT: 5.7 mL/cm^3
mGluR5; OC occipital cortex, GA, NHP1
  VT: 5.5 mL/cm^3
mGluR5; OC occipital cortex, GA, NHP2
  VT: 5.7 mL/cm^3
mGluR5; OC occipital cortex, GA, mean
  VT: 5.6 mL/cm^3
mGluR5; PFC prefrontal cortex, 2TC, NHP1
  VT: 9.6 mL/cm^3
mGluR5; PFC prefrontal cortex, 2TC, NHP2
  VT: 9.5 mL/cm^3
mGluR5; PFC prefrontal cortex, 2TC, mean
  VT: 9.5 mL/cm^3
mGluR5; PFC prefrontal cortex, GA, NHP1
  VT: 8.9 mL/cm^3
mGluR5; PFC prefrontal cortex, GA, NHP2
  VT: 9.3 mL/cm^3
mGluR5; PFC prefrontal cortex, GA, mean
  VT: 9.1 mL/cm^3
mGluR5; PUT putamen, 2TC, NHP1
  VT: 9.5 mL/cm^3
mGluR5; PUT putamen, 2TC, NHP2
  VT: 10.7 mL/cm^3
mGluR5; PUT putamen, 2TC, mean
  VT: 10.1 mL/cm^3
mGluR5; PUT putamen, GA, NHP1
  VT: 9.3 mL/cm^3
mGluR5; PUT putamen, GA, NHP2
  VT: 10.1 mL/cm^3
mGluR5; PUT putamen, GA, mean
  VT: 9.7 mL/cm^3
mGluR5; TC temporal cortex, 2TC, NHP1
  VT: 7.6 mL/cm^3
mGluR5; TC temporal cortex, 2TC, NHP2
  VT: 8.4 mL/cm^3
mGluR5; TC temporal cortex, 2TC, mean
  VT: 8.0 mL/cm^3
mGluR5; TC temporal cortex, GA, NHP1
  VT: 7.2 mL/cm^3
mGluR5; TC temporal cortex, GA, NHP2
  VT: 8.1 mL/cm^3
mGluR5; TC temporal cortex, GA, mean
  VT: 7.7 mL/cm^3
mGluR5; THA thalamus, 2TC, NHP1
  VT: 11.7 mL/cm^3
mGluR5; THA thalamus, 2TC, NHP2
  VT: 11.4 mL/cm^3
mGluR5; THA thalamus, 2TC, mean
  VT: 11.6 mL/cm^3
mGluR5; THA thalamus, GA, NHP1
  VT: 10.6 mL/cm^3
mGluR5; THA thalamus, GA, NHP2
  VT: 10.8 mL/cm^3
mGluR5; THA thalamus, GA, mean
  VT: 10.7 mL/cm^3
mGluR5; VM ventral midbrain, 2TC, NHP1
  VT: 11.0 mL/cm^3
mGluR5; VM ventral midbrain, 2TC, NHP2
  VT: 8.9 mL/cm^3
mGluR5; VM ventral midbrain, 2TC, mean
  VT: 9.9 mL/cm^3
mGluR5; VM ventral midbrain, GA, NHP1
  VT: 9.1 mL/cm^3
mGluR5; VM ventral midbrain, GA, NHP2
  VT: 8.4 mL/cm^3
mGluR5; VM ventral midbrain, GA, mean
  VT: 8.8 mL/cm^3
mGluR5; VST ventral striatum, 2TC, NHP1
  VT: 17.3 mL/cm^3
mGluR5; VST ventral striatum, 2TC, NHP2
  VT: 17.3 mL/cm^3
mGluR5; VST ventral striatum, 2TC, mean
  VT: 17.3 mL/cm^3
mGluR5; VST ventral striatum, GA, NHP1
  VT: 14.5 mL/cm^3
mGluR5; VST ventral striatum, GA, NHP2
  VT: 15.6 mL/cm^3
mGluR5; VST ventral striatum, GA, mean
  VT: 15.1 mL/cm^3
mGluR5; two cynomolgus monkeys (n = 2), i.v.
  Maximum whole brain radioactivity concentration: 4.9–6.7 % of the injected dose
